The text below walks through data of patent publication US9216956B2, “Deuterium-enriched 4-hydroxy-5-methoxy-N,1-dimethyl-2-oxo-N-[(4-trifluoro-methyl)phenyl]-1,2-dihydroquinoline-3-carboxamide” (ACTIVE BIOTECH AB, priority 2011, dated 2015).

Each structure is given as a SMILES string. Values after ≈ are worked out from the molar mass of the structure shown. Values joined by “and” are separate entries in the source; they are usually repeats but may differ in a detail not shown here. Equal entries are not always repeated.

In general, solubility refers to the concentration that dissolves in the medium under given conditions. A high value points to a readily soluble substance.

Data set [1] has as its system AhR (Aryl hydrocarbon Receptor) mediated induction of CYP1A1. As to the kind of experiment: TV-cell assay: luciferase gene reporter assay for AhR mediated induction of CYP1A1 in TV101L (HepG2) cells. It counts as cell-based, human. Particulars: TV-cell assay. As to the method:
(§1) ABR-215050 was tested with respect to its CYP1A inducing capability in vitro in a TV-cell assay. This assay is a luciferase gene reporter assay developed for the measurement of AhR (Aryl hydrocarbon Receptor) mediated induction of CYP1A. Human CYP1A promoters and 5′-flanking sequences were cloned into firefly luciferase expression vectors and stably integrated into the human hepatoma cell line, HepG2 (9). The isolated cell line was renamed TV101L.
(§2) The mechanism for transcription of CYP1A1 involves the binding of the inducer to the Ah receptor followed by a translocation of the ligand-Ah-receptor complex to the nucleus, where it binds to specific enhancer sequences in the 5′-flanking region of the CYP1A1 gene. These sequences are referred to as xenobiotic responsive elements (XREs).
(§3) A luciferase gene reporter assay was used for the measurement of AhR mediated induction of CYP1A1. Human CYP1A1 promoters and 5′-flanking sequences were cloned into firefly luciferase expression vectors and stably integrated into the human hepatoma cell line, HepG2 (8). The isolated cell line was renamed TV101L.
(§4) The cells were seeded in 96 well tissue culture plates 24-48 hours prior to treatment with the test compound. After the addition of ABR-215050 at a concentration of 1, 10 and 100 μM, the cells were further incubated for 12-24 hours. The cells were harvested by the addition of lysis buffer followed by a freezing/thawing cycle. An enzymatic assay was used for the determination of luciferase activity.
(§5) The same assay as used for ABR-215050 was used. The concentrations of ABR-215691 that were used and the results obtained, expressed as fold induction of luciferase expression, are shown in Table 4 and in FIG. 1.
In general terms: Reporter assays use an easily measured gene product as a stand-in for the process of interest.

A short description of a further data set: Water solubility. It counts as physicochemical. The conditions noted are these: for solubility: water, pH 7, aqueous buffer. The source says:
The water solubility of ABR-215050 and of its metabolites also was investigated. It is a well-known fact that metabolism in general aims to transform compounds to more water soluble entities (10), which mostly decreases toxicity but also facilitates renal elimination. […]

The subject of data set [2] is CYP1A1 (AhR mediated induction). The experiment in a line: TV-cell assay: luciferase gene reporter assay for AhR mediated induction of CYP1A1 in TV101L (HepG2) cells. It counts as cell-based, human. Particulars: human, TV101L cells, read-out: Fold induction of luciferase expression. Here is the method:
as §1, §2, §3, §4, §5

A short description of data set [3]: In vivo pharmacokinetics in rat: plasma levels of parents and amide-N demethyl metabolite after 1:1 mixture. Particulars: plasma, oral, peroral 2.5 mg/kg of each compound (1:1 mixture), read-out: Plasma level. An excerpt: Therefore, the pharmacokinetic characteristics of the amide-N methyl deuterated ABR-215050 (herein below referred to as ABR-215050-dx), wherein the amide-N methyl moiety was tri-deuterated, compared to the non-deuterated parent compound were studied in rat. […] In other words: relative to ABR-215050, the in vivo formation of ABR-215691 was reduced to only 25% when ABR-215050-dx was used.
A deuterated (also referred to as deuterium-enriched) ABR-215050 was synthesized, wherein the amide-N methyl moiety was trideuterated (ABR-215050-dx). This deuterated compound was diluted with non-deuterated ABR-215050 to a molar ratio of 1:1. The 1:1 equivalent molar mixture was administrated to rats in an in vivo experiment. Because of additional 13-carbon labeling in the quinoline scaffold, the formed amide-N demethyl metabolites could be measured selectively by means of HPLC-MS (High performance Liquid Chromatography with Mass Spectrometric detection). In Table 5, the plasma levels of ABR-215050-dx and ABR-215050 (in nM) measured in 4 different rats are shown, as well as the ratio of these two compounds.

In another data set the test system is CYP1A2. As to the kind of experiment: In vivo CYP1A2 induction in rat, MROD activity of liver microsomes. As to the method: (§6) The in vivo induction of CYP1A1 and CYP1A2 after repeated administration of ABR-215050 and of ABR-215050-dx, respectively, was studied in rat.
(§7) Test preparations B and C and blank preparation A were made as follows: For preparation B, ABR-215050 was dissolved in NaOH and sterile water at a concentration of 0.5 mg/mL. The pH of the solution was adjusted to pH 7.4-8.5. Preparation C was made in the same way, using ABR-215050-dx. Preparation A was a blank containing only water. The preparations were stored in a refrigerator for a maximum of one week before use.
(§8) On arrival at the laboratory, the test animals were 9 weeks old Sprague Dawley male rats having a body weight of 250 g. They were divided into 3 groups and were allowed to acclimatize for at least 7 days before the test. During the whole acclimatization and test period, the animals received water and feed (Labfor R70, form Kimstad, Sweden) ad libitum, and were kept under a 12 hours dark/12 hours light cycle, at a temperature of 20±2° C. and a relative humidity of 50±15%.
(§9) Before administration of any test preparation, the body weight of each animal was measured and the individual dose to be administered to an animal was determined based on the weight of the animal. Administration was performed perorally during 4 days, cf.
(§10) At 24 h after administration of the final dose, the animals were weighed and from each animal a final blood sample was withdrawn for a pharmacokinetic analysis. The animals then were euthanized and from each one the liver was withdrawn, weighed, and immediately frozen in crushed dry ice. The livers then were stored at −70° C. until preparation of microsomes.
(§11) Microsomes were prepared according to the method M-0287 “Preparation of subcellular fractions from animal tissues” and then kept at −70° C. until analysis.
(§12) The total protein concentration of the microsomal fraction was determined according to the method M-0289 “Determination of Protein according to Hartree”.
Background: Microsomes from liver hold many membrane-bound enzymes, among them those of drug oxidation.

The conditions of data set [4]: phase II, cited from earlier work.
Another data set deals with CYP1A1. As to the kind of experiment: In vivo CYP1A1 induction in rat, EROD activity of liver microsomes. As to the method: as §6, §7, §8, §9, §10, §11, §12
The conditions of data set [5]: cited from earlier work.
Setting [6] is: group mean, 1 mg/kg perorally days 1-4.
Where [7] appears, read: individual rat, 1 mg/kg perorally days 1-4, liver microsomes 24 h after final dose, 1 mg/kg.
[8] abbreviates: individual rat, versus water group.

Take `CN(C(=O)c1c(O)c2c(O)cccc2n(C)c1=O)c1ccc(C(F)(F)F)cc1` [ABR-222097]: in data set [1], the “CYP1A induction (in words)” value is given as “not to induce CYP1A”. Besides, in “Water solubility”, the “water solubility (in words)” value is “highly water soluble”.

For the compound `COc1cccc2c1c(O)c(C(=O)Nc1ccc(C(F)(F)F)cc1)c(=O)n2C` [ABR-215691], the “CYP1A induction (in words)” value in data set [1] is “substantial CYP1A inducing capacity”. Moreover, in data set [2] (0.01 μM), the fold induction at 0.01 µM was determined as 15.1. For the same compound, the fold induction at 0.1 µM in data set [2] (0.1 μM) is 14.9. Also, the fold induction at 1 µM in data set [2] (12-24 hours) came out at 21.3. For the same compound, in “Water solubility”, the “water solubility (in words)” value is “extremely low water solubility” and the solubility was less than 0.01 µg/mL.

`COc1cccc2[nH]c(=O)c(C(=O)N(C)c3ccc(C(F)(F)F)cc3)c(O)c12` [ABR-219694]: the “CYP1A induction (in words)” value in data set [1] is recorded as “not to induce CYP1A”. Besides, the “water solubility (in words)” value in the data set “Water solubility” was “highly water soluble”.

On to `COc1cccc2c1c(O)c(C(=O)N(C)c1ccc(C(F)(F)F)cc1)c(=O)n2C` [ABR-215050, 4-hydroxy-5-methoxy-N,1-dimethyl-2-oxo-N-[(4-trifluoromethyl)phenyl]-1,2-dihydroquinoline-3-carboxamide, reference compound], for which the concentration at 1 h in data set [3] (rat No 1, 1 h) is 13.8 µM. In addition, in data set [3] (rat No 2, 2 h), the concentration at 2 h was found to be 13.9 µM. For the same compound, the concentration at 3 h in data set [3] (rat No 3, 3 h) was 7.38 µM. Besides, the concentration at 4 h in data set [3] (rat No 4, 4 h) is 17.8 µM. The “CYP1A induction (in words)” value in data set [1] is “did not induce CYP1A”. The fold induction at 1 µM in data set [2] (12-24 hours) stood at 5.2. Moreover, the fold induction at 10 µM in data set [2] (10 μM, 12-24 hours) turned out to be 7.3. The fold induction at 100 µM in data set [2] (100 μM, 12-24 hours) is 11.8. Besides, the “CYP1A2 activity (MROD), Mean” value in the data set on CYP1A2 (setting [6]) was found to be 334 pmol/mg prot/min. Besides, the “mean fold induction of CYP1A2” value with CYP1A2 (group mean, versus water group) was 17. Moreover, the “CYP1A2 activity (MROD)” value in the data set with CYP1A2 (setting [7]) is 311 pmol/mg prot/min and 357 pmol/mg prot/min. The “CYP1A2 Fold induction” value in the data set with CYP1A2 (setting [8]) was 16 and 18. Further, the tolerability result in data set [4] (patients) was “generally well tolerated”. Further, the “median progression free survival” value in data set [4] (patients, placebo 3.2 months (p=0.0009)) is listed as 7.6 months. Further, the “fraction of patients with disease progression during the six month period” value in data set [4] (placebo 66% (p<0.0001)) was 31%. In addition, the solubility in the data set “Water solubility” amounted to 500 µg/mL (≈ 1230 µM). In the data set with CYP1A1 (setting [6]), the “CYP1A1 activity (EROD), Mean” value came to 1891 pmol/mg prot/min. Further, the “mean fold induction of CYP1A1” value in the data set on CYP1A1 (group mean, versus water group) was 42. For the same compound, in the data set with CYP1A1 (setting [7]), the “CYP1A1 activity (EROD)” value was 1342 pmol/mg prot/min and 2440 pmol/mg prot/min. Besides, in the data set on CYP1A1 (setting [8]), the “CYP1A1 Fold induction” value was 30 and 54. The “steady state plasma levels” value in data set [5] (1-10 mg/kg/day via drinking water) is 0.4 to 1 µM. The plasma half-life in data set [5] (in vivo) was 3.4 h.
